This note sets out measurements from US8987195B2 (priority 2012, dated 2015).

Where two headings read alike, the source gives them in different places.

For test [1], the system named is HCV genotype 1b replicon. Nature of the test: HCV replicon assay, genotype 1b replicon EC50. In kind it is cell-based, Hepatitis C virus. Particulars: Hepatitis C virus, genotype 1b replicon, read-out: EC50 [gt-1b]. The gist of the method:
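Compound dilution series incubated 24-48 h, G418 absent, with HCV genotype 1b replicon cell lines kept under G418 selection beforehand. Luciferase signal or replicon RNA, by ^32P hybridization/protection or TaqMan normalized to cyclophilin A, was measured after washing and lysis. Four-parameter fitting against DMSO control gave EC50.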

The target in test [2] is HCV NS3/4A protease genotype 1b (Hepatitis C virus genotype 1b, UniProt P26663). In words: HCV NS3/4A protease time-resolved fluorescence (TRF) assay, Ki against genotype 1b. The test is classed as biochemical. Conditions: IC50 [gt-1b] (nM), NS3/4A genotype 1b, enzyme 0.2 nM. The gist of the method:
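Enzyme 0.2 nM 1b / 0.4 nM A156T / 0.025 nM 3a; 30 min preinc. w/ cpd; 25 nM TRF peptide; 2.5 h RT; ex 340/em 615 time-delayed; 4-param IC50 → Ki = IC50/(1+[S]/KM).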

With `COc1ccc2c3c(c(C4CC4)nc2c1)O[C@]1(CC3)C[C@H]2C(=O)N[C@]3(C(=O)NS(=O)(=O)C4(C)CC4)C[C@H]3/C=C\CCCCC[C@H](NC(=O)O[C@H]3C[C@@H](C)CC[C@@H]3C(C)C)C(=O)N2C1` [Example 275, (1S,2R,5S)-5-methyl-2-(propan-2-yl)cyclohexyl [(2R,6S,12Z,13aS,14aR,16aS)-5′-cyclopropyl-8′-methoxy-14a-{[(1-methylcyclopropyl)sulfonyl]carbamoyl}-5,16-dioxo-1,1′,2′,5,6,7,8,9,10,11,13a,14,14a,15,16,16a-hexadecahydrospiro[cyclopropa[e]pyrrolo[1,2-a][1,4]diazacyclopentadecine-2,3′-pyrano[2,3-c]quinolin]-6-yl]carbamate], the EC50 in test [1] (HCOOH salt) came out at 39.5 nM. Further, in test [2] (HCOOH salt), the IC50 turned out to be 11.3 nM.
In the case of `COc1ccc2c3c(c(C4CC4)nc2c1)O[C@]1(CC3)C[C@H]2C(=O)N[C@]3(C(=O)NS(=O)(=O)C4(C)CC4)C[C@H]3/C=C\CCCCC[C@H](NC(=O)O[C@@H]3C[C@H](C)CC[C@H]3C(C)C)C(=O)N2C1` [Example 276, (1R,2S,5R)-5-methyl-2-(propan-2-yl)cyclohexyl [(2R,6S,12Z,13aS,14aR,16aS)-5′-cyclopropyl-8′-methoxy-14a-{[(1-methylcyclopropyl)sulfonyl]carbamoyl}-5,16-dioxo-1,1′,2′,5,6,7,8,9,10,11,13a,14,14a,15,16,16a-hexadecahydrospiro[cyclopropa[e]pyrrolo[1,2-a][1,4]diazacyclopentadecine-2,3′-pyrano[2,3-c]quinolin]-6-yl]carbamate], the EC50 in test [1] (HCOOH salt) worked out at 104 nM. The IC50 in test [2] (HCOOH salt) was found to be 3.97 nM.
Consider `COc1ccc2c3c(c(C4CC4)nc2c1)O[C@]1(CC3)C[C@H]2C(=O)N[C@]3(C(=O)NS(=O)(=O)C4(C)CC4)C[C@H]3/C=C\CCCCC[C@H](NC(=O)OCCF)C(=O)N2C1` [Example 277, 2-fluoroethyl [(2R,6S,12Z,13aS,14aR,16aS)-5′-cyclopropyl-8′-methoxy-14a-{[(1-methylcyclopropyl)sulfonyl]carbamoyl}-5,16-dioxo-1,1′,2′,5,6,7,8,9,10,11,13a,14,14a,15,16,16a-hexadecahydrospiro[cyclopropa[e]pyrrolo[1,2-a][1,4]diazacyclopentadecine-2,3′-pyrano[2,3-c]quinolin]-6-yl]carbamate], for which the half-maximal effective concentration (EC50) in test [1] (HCOOH salt) was 81.6 nM. The IC50 in test [2] (HCOOH salt) worked out at 1.05 nM.
For `COc1ccc2c3c(c(C4CC4)nc2c1)O[C@]1(CC3)C[C@H]2C(=O)N[C@]3(C(=O)NS(=O)(=O)C4(C)CC4)C[C@H]3/C=C\CCCCC[C@H](NC(=O)OC3CCOC3)C(=O)N2C1` (stereo partly drawn) [Example 278, tetrahydrofuran-3-yl [(2R,6S,12Z,13aS,14aR,16aS)-5′-cyclopropyl-8′-methoxy-14a-{[(1-methylcyclopropyl)sulfonyl]carbamoyl}-5,16-dioxo-1,1′,2′,5,6,7,8,9,10,11,13a,14,14a,15,16,16a-hexadecahydrospiro[cyclopropa[e]pyrrolo[1,2-a][1,4]diazacyclopentadecine-2,3′-pyrano[2,3-c]quinolin]-6-yl]carbamate], in test [1] (HCOOH salt), the concentration for a half-maximal effect (EC50) stood at 12.4 nM. Besides, in test [2] (HCOOH salt), the IC50 came to 0.027 nM.
As to `Cc1nc2ccc(OC(F)F)cc2c2c1O[C@]1(CC2)C[C@H]2C(=O)N[C@]3(C(=O)NS(=O)(=O)C4(C)CC4)C[C@H]3/C=C\CCCCC[C@H](NC(=O)OCC(C)(C)C)C(=O)N2C1` [Example 280, 2,2-dimethylpropyl [(2R,6S,12Z,13aS,14aR,16aS)-9′-(difluoromethoxy)-5′-methyl-14a-{[(1-methylcyclopropyl)sulfonyl]carbamoyl}-5,16-dioxo-1,1′,2′,5,6,7,8,9,10,11,13a,14,14a,15,16,16a-hexadecahydrospiro[cyclopropa[e]pyrrolo[1,2-a][1,4]diazacyclopentadecine-2,3′-pyrano[2,3-c]quinolin]-6-yl]carbamate], the EC50 in test [1] was found to be 2.84 nM. This compound also had an IC50 in test [2] of 0.005 nM.
